Calls of active or inactive are those of the source.

Experiment [1] has as its target Peroxisome proliferator-activated receptor gamma/Nuclear receptor coactivator 1 (Homo sapiens, UniProt P37231). The experiment in a line: TR-FRET dose response biochemical High Throughput Screening assay for agonists of the steroid receptor coactivator 1 (SRC-1) recruitment by the peroxisome proliferator-activated receptor gamma (PPAR gamma): non-selective agonists. [Related pubchem assays (depositor defined):AID1300, AID1808, AID504735, AID631]. It counts as protein assay. For orientation: Time-resolved FRET reads energy transfer from a long-lived donor to a nearby acceptor.

For experiment [2], the target named is Peroxisome proliferator-activated receptor gamma/Nuclear receptor coactivator 3 (Homo sapiens, UniProt P37231). Nature of the experiment: TR-FRET dose response biochemical High Throughput Screening assay for agonists of the steroid receptor coactivator 3 (SRC-3) recruitment by the peroxisome proliferator-activated receptor gamma (PPAR gamma): non-selective agonists. [Related pubchem assays: 1301 (Confirmation screen.), 1048 (Primary screen.)]. It counts as functional.
Chain of Peroxisome proliferator-activated receptor gamma/Nuclear receptor coactivator 3 (P37231 whole entry): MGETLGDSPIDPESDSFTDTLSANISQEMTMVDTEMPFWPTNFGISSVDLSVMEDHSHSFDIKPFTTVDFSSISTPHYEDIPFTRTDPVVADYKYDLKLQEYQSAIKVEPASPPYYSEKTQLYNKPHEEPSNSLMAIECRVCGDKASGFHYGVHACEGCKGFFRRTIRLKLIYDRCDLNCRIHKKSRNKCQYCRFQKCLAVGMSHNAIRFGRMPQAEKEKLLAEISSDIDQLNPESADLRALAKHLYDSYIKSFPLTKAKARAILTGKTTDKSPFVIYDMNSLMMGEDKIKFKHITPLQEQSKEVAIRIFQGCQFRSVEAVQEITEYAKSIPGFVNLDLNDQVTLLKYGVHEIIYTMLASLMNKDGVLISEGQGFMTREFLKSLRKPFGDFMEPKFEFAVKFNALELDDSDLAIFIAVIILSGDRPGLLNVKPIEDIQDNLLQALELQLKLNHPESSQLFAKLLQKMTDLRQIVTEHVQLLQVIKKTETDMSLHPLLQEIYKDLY
Chain of Peroxisome proliferator-activated receptor gamma/Nuclear receptor coactivator 3 (Q9Y6Q9 whole entry, further chain): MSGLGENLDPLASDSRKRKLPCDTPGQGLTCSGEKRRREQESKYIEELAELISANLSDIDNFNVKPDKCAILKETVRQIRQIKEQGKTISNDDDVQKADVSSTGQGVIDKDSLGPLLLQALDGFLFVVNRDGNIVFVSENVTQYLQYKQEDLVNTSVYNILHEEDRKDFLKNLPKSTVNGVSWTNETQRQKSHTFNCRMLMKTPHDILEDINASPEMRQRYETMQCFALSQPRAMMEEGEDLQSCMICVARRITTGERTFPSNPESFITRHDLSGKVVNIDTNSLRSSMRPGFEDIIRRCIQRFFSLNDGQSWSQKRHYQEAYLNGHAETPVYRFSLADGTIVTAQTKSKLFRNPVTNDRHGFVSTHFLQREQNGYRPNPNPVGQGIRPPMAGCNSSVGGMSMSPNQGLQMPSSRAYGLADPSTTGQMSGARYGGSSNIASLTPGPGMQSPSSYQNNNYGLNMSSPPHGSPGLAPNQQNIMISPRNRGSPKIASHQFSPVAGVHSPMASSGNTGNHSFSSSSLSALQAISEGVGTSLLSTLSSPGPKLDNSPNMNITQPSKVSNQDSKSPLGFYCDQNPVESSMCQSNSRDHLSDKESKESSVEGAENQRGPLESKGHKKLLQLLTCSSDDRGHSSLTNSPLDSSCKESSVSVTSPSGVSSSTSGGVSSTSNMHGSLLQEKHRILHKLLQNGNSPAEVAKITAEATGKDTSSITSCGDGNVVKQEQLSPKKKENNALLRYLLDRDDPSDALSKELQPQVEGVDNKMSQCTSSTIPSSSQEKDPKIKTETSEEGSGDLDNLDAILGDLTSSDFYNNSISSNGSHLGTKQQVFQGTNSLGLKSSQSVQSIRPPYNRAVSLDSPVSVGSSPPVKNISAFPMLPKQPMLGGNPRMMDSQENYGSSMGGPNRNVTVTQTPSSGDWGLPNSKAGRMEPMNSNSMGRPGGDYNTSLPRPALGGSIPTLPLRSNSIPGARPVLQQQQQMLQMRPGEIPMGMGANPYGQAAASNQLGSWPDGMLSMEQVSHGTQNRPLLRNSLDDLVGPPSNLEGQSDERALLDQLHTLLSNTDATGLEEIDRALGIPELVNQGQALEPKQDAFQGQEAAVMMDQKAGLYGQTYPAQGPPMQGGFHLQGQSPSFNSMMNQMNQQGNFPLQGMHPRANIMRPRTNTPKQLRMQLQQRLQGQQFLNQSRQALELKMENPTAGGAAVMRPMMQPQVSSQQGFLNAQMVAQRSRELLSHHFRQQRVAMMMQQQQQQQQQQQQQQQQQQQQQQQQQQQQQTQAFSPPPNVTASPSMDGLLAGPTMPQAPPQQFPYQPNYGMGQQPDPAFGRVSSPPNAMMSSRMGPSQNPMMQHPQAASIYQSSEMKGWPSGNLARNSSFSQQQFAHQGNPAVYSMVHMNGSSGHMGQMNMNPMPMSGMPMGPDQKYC

Experiment [3] deals with Peroxisome proliferator-activated receptor gamma/Nuclear receptor coactivator 2 (Homo sapiens, UniProt P37231). Nature of the experiment: TR-FRET dose response biochemical High Throughput Screening assay for agonists of the steroid receptor coactivator 2 (SRC-2) recruitment by the peroxisome proliferator-activated receptor gamma (PPAR gamma): non-selective agonists. [Related pubchem assays: 1297, 1032 ]. Format: functional.
Chain of Peroxisome proliferator-activated receptor gamma/Nuclear receptor coactivator 2 (P37231 whole entry): as the sequence (P37231 whole entry) above
Chain of Peroxisome proliferator-activated receptor gamma/Nuclear receptor coactivator 2 (Q15596 whole entry, further chain): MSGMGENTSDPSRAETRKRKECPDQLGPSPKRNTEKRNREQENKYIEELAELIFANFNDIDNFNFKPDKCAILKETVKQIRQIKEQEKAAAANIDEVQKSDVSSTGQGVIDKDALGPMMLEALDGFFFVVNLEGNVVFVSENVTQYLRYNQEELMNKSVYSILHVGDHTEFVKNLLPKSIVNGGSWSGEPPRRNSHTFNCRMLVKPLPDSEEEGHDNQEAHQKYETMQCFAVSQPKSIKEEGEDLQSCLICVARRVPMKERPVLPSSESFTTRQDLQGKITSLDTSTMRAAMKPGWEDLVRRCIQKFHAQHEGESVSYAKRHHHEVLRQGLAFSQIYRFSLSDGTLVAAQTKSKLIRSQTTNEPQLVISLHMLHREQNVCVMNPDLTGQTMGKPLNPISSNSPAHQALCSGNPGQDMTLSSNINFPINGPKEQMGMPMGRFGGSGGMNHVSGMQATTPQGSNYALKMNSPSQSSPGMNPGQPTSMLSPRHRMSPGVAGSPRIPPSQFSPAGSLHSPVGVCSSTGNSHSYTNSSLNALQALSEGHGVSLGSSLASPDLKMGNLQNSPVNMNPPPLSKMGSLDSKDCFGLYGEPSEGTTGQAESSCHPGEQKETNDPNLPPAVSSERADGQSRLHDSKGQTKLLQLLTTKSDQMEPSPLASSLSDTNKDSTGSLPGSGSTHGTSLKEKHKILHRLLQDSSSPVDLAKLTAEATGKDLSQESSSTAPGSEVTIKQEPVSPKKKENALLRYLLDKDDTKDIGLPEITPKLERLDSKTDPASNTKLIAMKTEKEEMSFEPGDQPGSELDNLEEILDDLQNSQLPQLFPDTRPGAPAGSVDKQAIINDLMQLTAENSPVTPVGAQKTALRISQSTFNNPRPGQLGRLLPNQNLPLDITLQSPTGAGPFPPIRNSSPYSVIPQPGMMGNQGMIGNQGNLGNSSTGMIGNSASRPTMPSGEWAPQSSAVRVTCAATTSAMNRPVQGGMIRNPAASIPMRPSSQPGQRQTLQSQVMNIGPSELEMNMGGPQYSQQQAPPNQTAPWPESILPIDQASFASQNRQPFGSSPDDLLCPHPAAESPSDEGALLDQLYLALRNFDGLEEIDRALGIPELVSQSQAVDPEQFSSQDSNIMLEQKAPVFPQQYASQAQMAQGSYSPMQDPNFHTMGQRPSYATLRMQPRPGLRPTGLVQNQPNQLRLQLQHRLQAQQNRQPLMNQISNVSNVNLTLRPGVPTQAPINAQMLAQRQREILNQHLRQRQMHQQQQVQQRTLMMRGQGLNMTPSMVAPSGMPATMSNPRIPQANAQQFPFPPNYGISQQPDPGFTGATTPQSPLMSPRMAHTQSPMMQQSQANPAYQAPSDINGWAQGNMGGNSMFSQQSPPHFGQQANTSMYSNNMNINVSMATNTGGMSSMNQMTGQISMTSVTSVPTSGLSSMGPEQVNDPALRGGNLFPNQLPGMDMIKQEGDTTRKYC

A further experiment concerns the target T1, Coagulation factor XII (Homo sapiens, UniProt P00748).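 Note: activated factor XIIa alpha cleaving a fluorogenic AMC peptide substrate; inhibitor potency from loss of enzyme activity.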
T1 sequence (P00748 whole entry): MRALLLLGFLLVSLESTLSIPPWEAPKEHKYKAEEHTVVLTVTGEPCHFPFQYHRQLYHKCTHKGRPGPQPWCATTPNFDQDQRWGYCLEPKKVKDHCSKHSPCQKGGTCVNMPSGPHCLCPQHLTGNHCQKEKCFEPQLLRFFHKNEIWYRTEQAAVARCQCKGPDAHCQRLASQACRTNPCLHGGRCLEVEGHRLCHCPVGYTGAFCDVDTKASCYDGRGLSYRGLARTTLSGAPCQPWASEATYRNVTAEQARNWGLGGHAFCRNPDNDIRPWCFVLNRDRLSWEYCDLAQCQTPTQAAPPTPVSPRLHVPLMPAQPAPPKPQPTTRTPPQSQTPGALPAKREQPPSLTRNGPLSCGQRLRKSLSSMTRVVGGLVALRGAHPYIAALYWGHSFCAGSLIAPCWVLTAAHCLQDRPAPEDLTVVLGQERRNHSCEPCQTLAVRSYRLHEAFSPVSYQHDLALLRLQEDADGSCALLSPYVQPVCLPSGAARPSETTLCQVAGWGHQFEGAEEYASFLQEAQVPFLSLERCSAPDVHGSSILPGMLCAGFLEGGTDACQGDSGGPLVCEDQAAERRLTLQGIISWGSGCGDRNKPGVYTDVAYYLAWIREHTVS
Format: functional.

Experiment [4] addresses T2, Replicative DNA helicase DnaB (Mycobacterium tuberculosis, UniProt P9WMR3).
T2 sequence (P9WMR3 whole entry): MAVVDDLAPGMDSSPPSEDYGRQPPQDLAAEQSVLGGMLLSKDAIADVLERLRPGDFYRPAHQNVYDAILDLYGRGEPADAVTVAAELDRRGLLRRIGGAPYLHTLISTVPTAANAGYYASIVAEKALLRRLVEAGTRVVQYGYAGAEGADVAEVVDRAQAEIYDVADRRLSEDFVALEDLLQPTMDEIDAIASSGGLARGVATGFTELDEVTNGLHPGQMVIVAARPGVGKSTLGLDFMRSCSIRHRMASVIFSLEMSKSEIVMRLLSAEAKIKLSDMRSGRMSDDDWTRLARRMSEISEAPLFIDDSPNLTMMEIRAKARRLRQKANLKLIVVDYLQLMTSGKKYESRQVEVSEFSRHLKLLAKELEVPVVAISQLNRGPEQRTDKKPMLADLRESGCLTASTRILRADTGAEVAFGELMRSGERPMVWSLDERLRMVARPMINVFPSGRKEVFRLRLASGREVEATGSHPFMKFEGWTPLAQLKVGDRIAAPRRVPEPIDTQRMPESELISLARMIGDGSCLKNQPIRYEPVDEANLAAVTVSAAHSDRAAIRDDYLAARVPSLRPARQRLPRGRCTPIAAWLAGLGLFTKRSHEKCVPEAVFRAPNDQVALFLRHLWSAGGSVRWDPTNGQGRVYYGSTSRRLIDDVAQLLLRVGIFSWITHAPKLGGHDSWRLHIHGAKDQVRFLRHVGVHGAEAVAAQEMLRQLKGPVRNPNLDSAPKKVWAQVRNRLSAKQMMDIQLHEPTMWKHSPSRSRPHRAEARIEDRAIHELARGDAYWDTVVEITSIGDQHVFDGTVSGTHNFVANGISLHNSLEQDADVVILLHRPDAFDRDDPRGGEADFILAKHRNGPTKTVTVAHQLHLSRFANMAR
The experiment in a line: DnaB intein splicing inhibitors, dose response, biochemical, cell-free fluorescence (AID 449749). It counts as functional.

The target in a further experiment is T3, Protein RecA (Mycobacterium tuberculosis, UniProt P9WHJ3).
T3 sequence (P9WHJ3 whole entry): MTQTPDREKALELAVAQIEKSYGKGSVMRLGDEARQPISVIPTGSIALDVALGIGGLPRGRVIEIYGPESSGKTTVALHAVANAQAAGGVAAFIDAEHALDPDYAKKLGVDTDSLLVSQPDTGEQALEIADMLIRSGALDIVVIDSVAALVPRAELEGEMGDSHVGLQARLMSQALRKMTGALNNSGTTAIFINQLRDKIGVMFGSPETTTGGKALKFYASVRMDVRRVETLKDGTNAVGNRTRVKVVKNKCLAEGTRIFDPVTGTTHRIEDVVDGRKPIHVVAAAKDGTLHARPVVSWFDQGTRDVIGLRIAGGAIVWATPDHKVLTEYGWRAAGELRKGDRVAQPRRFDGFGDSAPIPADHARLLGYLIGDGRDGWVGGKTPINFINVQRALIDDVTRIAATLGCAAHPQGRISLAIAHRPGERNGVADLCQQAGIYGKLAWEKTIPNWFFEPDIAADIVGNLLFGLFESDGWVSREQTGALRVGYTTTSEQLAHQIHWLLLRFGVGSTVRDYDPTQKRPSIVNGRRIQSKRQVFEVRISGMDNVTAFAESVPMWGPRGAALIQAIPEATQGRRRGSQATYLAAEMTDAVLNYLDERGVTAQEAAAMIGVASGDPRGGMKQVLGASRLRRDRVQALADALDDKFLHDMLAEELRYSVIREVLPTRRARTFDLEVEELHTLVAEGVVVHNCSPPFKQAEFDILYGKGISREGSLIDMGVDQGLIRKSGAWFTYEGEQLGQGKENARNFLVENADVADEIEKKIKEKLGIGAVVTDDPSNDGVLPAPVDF
The experiment in a line: Fluorescence Cell-Free Homogeneous Dose Retest to Identify Inhibitors of RecA-Intein Splicing Activity. [Related pubchem assays (depositor defined):AID2097, AID2223, AID489010, AID492950]. Format: functional.

Experiment [5] is described as follows: reduction of Shn3 3'UTR-driven luciferase in osteoblasts – cell-based, Clone20 osteoblasts, firefly luciferase, cherry-picked, dose response (AID 624132).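 Note: firefly luciferase luminescence from reporter carrying the Shn3 3'UTR in osteoblasts.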 Format: functional.
Experiment [6] is described as follows: loss of viability in HepG2 cells – cell-based, CellTiter-Glo, cherry-picked, cytotoxicity control for Shn3 inhibitor project, dose response (AID 624134). It counts as functional.
The nature of experiment [7]: non-specific 3'UTR reporter inhibition in Clone20-Shn3RL – cell-based, Renilla luciferase, cherry-picked, counter-screen for Shn3 inhibitor project, dose response (AID 624133). Format: functional. Background: A counterscreen serves to expose hits that act by an unwanted route or on another target.
Experiment [8] relates to HEK293. The experiment in a line: cells. The conditions noted are these: Homo sapiens.
Experiment [9] relates to HEK293. Nature of the experiment: cells. The conditions noted are these: Homo sapiens. This is another data set of the same source.
In experiment [10] the target is T4, Rac GTPase-activating protein 1 (Homo sapiens, UniProt Q9H0H5).
T4 sequence (Q9H0H5 whole entry): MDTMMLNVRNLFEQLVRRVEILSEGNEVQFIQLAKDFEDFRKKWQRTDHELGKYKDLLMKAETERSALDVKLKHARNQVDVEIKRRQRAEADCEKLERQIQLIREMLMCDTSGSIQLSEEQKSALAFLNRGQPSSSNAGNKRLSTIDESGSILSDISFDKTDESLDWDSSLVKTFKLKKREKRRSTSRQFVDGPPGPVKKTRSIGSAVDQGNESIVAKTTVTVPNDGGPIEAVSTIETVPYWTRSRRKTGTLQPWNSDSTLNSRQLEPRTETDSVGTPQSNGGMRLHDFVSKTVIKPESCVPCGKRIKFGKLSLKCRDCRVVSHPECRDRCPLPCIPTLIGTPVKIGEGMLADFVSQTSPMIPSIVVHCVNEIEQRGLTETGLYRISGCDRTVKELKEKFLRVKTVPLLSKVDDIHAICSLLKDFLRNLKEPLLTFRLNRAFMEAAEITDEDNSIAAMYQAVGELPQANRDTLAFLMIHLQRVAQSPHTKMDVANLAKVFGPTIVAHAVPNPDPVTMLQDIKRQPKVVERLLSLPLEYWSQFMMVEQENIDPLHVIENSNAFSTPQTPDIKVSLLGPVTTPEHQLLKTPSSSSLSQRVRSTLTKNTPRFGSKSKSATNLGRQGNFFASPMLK
The experiment in a line: blockers of MgcRacGAP-driven Rac1 GTP hydrolysis – biochemical, ADP Hunter fluorescence, primary and confirmatory, confirmation (AID 624330). Format: functional.

Experiment [11] addresses T5, Heat shock factor protein 1 (Mus musculus, UniProt P38532).
T5 sequence (P38532 whole entry): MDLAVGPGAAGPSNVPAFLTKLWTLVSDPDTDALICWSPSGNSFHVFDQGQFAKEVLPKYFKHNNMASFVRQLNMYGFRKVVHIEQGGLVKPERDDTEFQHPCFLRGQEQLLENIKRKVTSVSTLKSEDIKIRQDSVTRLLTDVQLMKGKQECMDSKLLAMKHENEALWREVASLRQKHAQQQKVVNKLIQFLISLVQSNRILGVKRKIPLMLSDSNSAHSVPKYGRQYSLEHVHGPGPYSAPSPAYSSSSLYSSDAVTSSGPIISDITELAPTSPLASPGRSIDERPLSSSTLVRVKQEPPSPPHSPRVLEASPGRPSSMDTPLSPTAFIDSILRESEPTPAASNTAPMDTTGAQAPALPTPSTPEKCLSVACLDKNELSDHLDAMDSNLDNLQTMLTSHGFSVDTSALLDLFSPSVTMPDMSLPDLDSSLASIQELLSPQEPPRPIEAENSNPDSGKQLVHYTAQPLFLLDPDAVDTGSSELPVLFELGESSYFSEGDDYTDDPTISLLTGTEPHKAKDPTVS
The experiment in a line: decrease of HSF1-responsive luciferase luminescence – cell-based, NIH3T3, dose retest, confirmation (AID 2382).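 Note: NIH3T3 fibroblasts with HSF1-driven luciferase reporter stressed by proteasome inhibitor MG132; luminescence from HSF1-driven luciferase expression after 8 hours of MG132 stress.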 Format: functional.

A short description of experiment [12]: Luminescence Cell-Based Dose Retest to Confirm Inhibitors of Cancer Stem Cells. [Related pubchem assays (depositor defined):AID2717, AID2721]. Format: functional. The conditions noted are these: Homo sapiens.
A short description of experiment [13]: viability loss of HMLE_sh_eGFP cells – cell-based, luminescence, counter-screen for HMLE_sh_ECad selective toxicity project, dose response (AID 463074).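 Note: HMLE human mammary epithelial cells expressing control shRNA against eGFP.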 It counts as functional, Homo sapiens.
Experiment [14] has as its target Glucose-6-phosphate 1-dehydrogenase (Homo sapiens, UniProt P11413). Nature of the experiment: inhibition of Homo sapiens G6PD, dose series – biochemical, fluorescence, selectivity assay for P. falciparum G6PD inhibitor project, dose response (AID 504792). It counts as functional.
Experiment [15] has as its target FAD-linked sulfhydryl oxidase ALR (Homo sapiens, UniProt P55789). Nature of the experiment: ALR-catalysed DTT oxidation blockers – biochemical, H2O2 detection, luminescence, cherry-pick, dose response (AID 493248).

Chain of Glucose-6-phosphate 1-dehydrogenase (P11413 whole entry): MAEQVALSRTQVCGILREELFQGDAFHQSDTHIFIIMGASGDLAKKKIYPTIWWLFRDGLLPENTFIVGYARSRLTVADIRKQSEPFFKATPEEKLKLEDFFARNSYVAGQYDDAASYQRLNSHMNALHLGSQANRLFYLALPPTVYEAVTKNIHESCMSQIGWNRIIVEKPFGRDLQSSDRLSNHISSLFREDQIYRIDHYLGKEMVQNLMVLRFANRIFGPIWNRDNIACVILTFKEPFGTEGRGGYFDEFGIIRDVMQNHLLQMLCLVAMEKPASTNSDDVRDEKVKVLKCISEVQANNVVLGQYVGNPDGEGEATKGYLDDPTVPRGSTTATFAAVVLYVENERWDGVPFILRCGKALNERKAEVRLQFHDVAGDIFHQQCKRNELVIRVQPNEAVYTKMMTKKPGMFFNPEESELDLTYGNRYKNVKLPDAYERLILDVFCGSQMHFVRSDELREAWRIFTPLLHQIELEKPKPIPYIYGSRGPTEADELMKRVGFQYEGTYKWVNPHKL
Chain of FAD-linked sulfhydryl oxidase ALR (P55789 whole entry): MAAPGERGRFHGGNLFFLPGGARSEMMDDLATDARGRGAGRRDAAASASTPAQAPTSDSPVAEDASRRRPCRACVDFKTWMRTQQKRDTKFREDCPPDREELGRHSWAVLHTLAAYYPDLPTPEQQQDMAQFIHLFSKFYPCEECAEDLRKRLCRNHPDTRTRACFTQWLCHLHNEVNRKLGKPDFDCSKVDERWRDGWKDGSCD

By EC50 is commonly meant the midpoint of the concentration-response curve. On to `Sc1nnc(-c2cc(-c3ccco3)[nH]n2)n1-c1ccccc1`, for which the EC50 was > 79.4 µM (inactive) in [1], > 79.4 µM (not active) in experiment [2] and > 79.4 µM (not active) in experiment [3].

Take `CCSc1cnn(-c2ccccc2)c(=O)c1SCC`: the values for the EC50 in experiment [1], in [2] and in [3] were 54.2 µM (inactive), > 79.4 µM (not active) and 7.53 µM (active), respectively.

As usually defined, the IC50 is the point on the concentration scale where inhibition reaches its midpoint. As for `Cc1ccc(NC(=O)CSc2nnc([C@H](C)NC(=O)OC(C)(C)C)o2)c(C)c1`, the IC50 at Coagulation factor XII was > 50 µM (inactive).

Consider `CCNc1ccc2c(Cl)cc(=O)oc2c1`, for which the IC50 at Coagulation factor XII was > 50 µM (inactive).

As usually defined, the AC50 is the midpoint of the concentration-response curve, whichever way the signal moves. Regarding `O=C(NCc1ccccc1)c1nc(S(=O)(=O)Cc2ccccc2)ncc1Cl`, the AC50 in experiment [4] was 2.72 µM (active); in [5] it was 1.19 µM (active); in [6] it was 20.4 µM (active); in experiment [7], 10.8 µM (active). For the same compound, the EC50 at Protein RecA is 4.88 µM (active); in the experiment on HEK293 [8], > 59.6 µM (inactive); in the experiment on HEK293 [9], > 2.21 µM (active).

As to `CC(C)(C)c1ccc(Cn2nnc3c(O)nc(C4CCN(C(=O)Cc5cccs5)CC4)nc32)cc1`, the EC50 in the experiment with HEK293 [8] and in the experiment with HEK293 [9] was > 59.7 µM (inactive) each time.

In the case of `CCc1c(C)nc2ncnn2c1N1CCC(C(=O)Nc2ccccc2)CC1`, at Coagulation factor XII, the IC50 is > 50 µM (inactive).

Consider `COCCNCC(=O)Nc1nc(C)cs1`, for which the IC50 on Coagulation factor XII was > 50 µM (inactive); in [10] it was 105 µM (active).

In the case of `c1ccc2c(Nc3nc(-c4ccncc4)nc4ccccc34)cccc2c1`, the EC50 in experiment [11] is > 195 µM (not active). Also, the AC50 in [12] is 18.7 µM (active); in [13], 34 µM (active).

For `COC(=O)c1sccc1NS(=O)(=O)c1ccc(OC)cc1`, the AC50 is 21.4 µM (active) in experiment [12] and 28.2 µM (active) in experiment [13].

Consider `COCCNC(=S)Nc1ccc(N2CCOCC2)c(S(=O)(=O)Nc2ccc(Cl)cc2)c1`, for which the IC50 in experiment [14] is > 80 µM (inactive).

As to `NC(=O)C1=CC2C3C=CC2(O)C(=O)OC3O1` (stereo not given), the EC50 with HEK293 [8] and in the experiment with HEK293 [9] was > 59.7 µM (inactive) each time.

In the case of `COc1cc(/N=C/c2c(CO)cnc(C)c2O)cc(OC)c1OC`, in [14], the IC50 is > 80 µM (inactive). Moreover, in experiment [15], the AC50 was 3.63 µM (active).

The record behind these values is ChEMBL document CHEMBL1201862, “PubChem BioAssay data set” (2004).
